Laboratory results reported in patent US20230172894A1, “COMBINATION TREATMENT FOR FUMARATE-RELATED DISEASES” (IMCYSE SA, priority 2020, published 2023).
Like-named read-outs stand apart in the source and are kept apart here. No end group written: not given here.

Assays:
[1] = tested on: experimental auto-immune encephalomyelitis (EAE) development in mice; settings: Example 3; for mice died in group: 16 mice per group; for disease onset: peptide 30 μg/Alum s.c. days 4, 9, 14, 19, BG-12 100 mg/kg p.o. BID days 0 to 27; for disease onset / AUC (area under the curve) of EAE scores / MMS (mean maximal score) / end score (clinical EAE score 0-5): vs negative control
From the text: Example 3: Effect of the therapeutic administration of an immunogenic peptide comprising a MOG35-55 MHCII T cell epitope linked to a KCRC (SEQ ID NO: 65) or KCRPYC (SEQ ID NO: 84) oxidoreductase motif in combination with dimethyl fumarate (BG-12, […]™) on experimental auto-immune encephalomyelitis (EAE) development in mice.
The study used a total of 128 female C57BL/6 mice (Taconic Biosciences, 9 weeks old on Day 0). Mice were acclimated for 7 days prior to the first injection. Mice were assigned to groups in a balanced manner to achieve similar average weight across the groups at the start of the study.
Treatment 1 was administered once on each of the days indicated in Table 4, s.c., at a volume of 0.05 mL/site, each mouse receiving injection at two sites, for a total of 0.1 mL/mouse/dosing day. IMCY-0189 (CXXC oxidoreductase motif, IMCY-0453 (CXC oxidoreductase motif) or IMCY-0455 (CXXXC oxidoreductase motif) peptide total dose was 30 μg per administration.
(§1) BG-12 was dosed at 100 mg/kg.
(§2) All dosing were done at the same time (+/−1 hour) each dosing day. For the BID groups there were no less than 10 and no more than 14 hours between doses.
(§3) (SEQ ID NO: 266), comprising an oxidoreductase motif KCRC (SEQ ID NO: 65), a linker GW, a murine Myelin Oligodendrocyte Glycoprotein (MOG35-55) MHCII T cell epitope […] (SEQ ID NO: 169) and a flanking sequence HLYR (SEQ ID NO: 186) (Smart Bioscience) was solubilized immediately before use. Lyophilized IMCY-0453 was thawed at room temperature for 10 minutes, resuspended in Na Acetate buffer 50 mM NaCl 0.9% pH 5.4 and incubated at room temperature for 10 minutes. Reconstituted peptide was then mixed with Imject™ Alum Adjuvant before injection.
as §3, with “268),” for “266),”, “KCRPYC” for “KCRC”, “84),” for “65),”, “IMCY-0455” for “IMCY-0453”
(§4) Treatment 2 was prepared as described in example 2.
EAE induction, scoring and statistical analysis were performed as described in example
(§5) EAE development was evaluated by comparing clinical EAE readouts for all groups to the negative control (Saline/Vehicle) group.

[2] = tested on: experimental auto-immune encephalomyelitis (EAE) development in mice; experiment: Example 3: serum neurofilament light (NF-L) levels in EAE mice; type: in vivo, female C57BL/6 mice; settings: Day 28 serum, vs negative control
Experimental: On Day 28, blood was collected from all mice into gel clot activator tubes and allowed to clot at room temperature for ˜30 minutes. Blood is then centrifuged at ˜10000 g for 5 minutes. Serum was transferred into Eppendorf tubes and stored at −80° C. until shipment to Quanterix™. Serum Neurofilament light (NF-L) protein levels were quantified using Simoa® NF-light Advantage kit as described in example 1.

[3] = tested on: experimental auto-immune encephalomyelitis (EAE) development in mice; settings: Example 4; 16 mice per group
From the text: Example 4: Effect of the therapeutic administration of an immunogenic peptide comprising a human MOG201-212 MHCII T cell epitope linked to a KHCPYC oxidoreductase motif in combination with dimethyl fumarate (BG-12, […]™) on experimental auto-immune encephalomyelitis (EAE) development in mice.
The study used a total of 96 female C57BL/6 mice (Taconic Biosciences, 9 weeks old on Day 0). Mice were acclimated for 7 days prior to the first injection. Mice were assigned to groups in a balanced manner to achieve similar average weight across the groups at the start of the study.
Treatment 1 was administered once on each of the days indicated in Table 5, s.c., at a volume of 0.05 mL/site, each mouse receiving injection at two sites, for a total of 0.1 mL/mouse/dosing day. IMCY-0189 or P4 peptide total dose was 30 μg per administration.
as §1, §2
Lyophilized immunogenic peptide P4 with the sequence […] (SEQ ID NO: 176), comprising an oxidoreductase motif KHCPYC (SEQ ID NO: 77), a linker VRY, a human Myelin Oligodendrocyte Glycoprotein (MOG201-212) MHCII T cell epitope […] (SEQ ID NO: 165) and a flanking sequence TLFKK (SEQ ID NO: 267) (Smart Bioscience) was solubilized immediately before use. Lyophilized P4 was thawed at room temperature for 10 minutes, resuspended in Na Acetate buffer 50 mM NaCl 0.9% pH 5.4 and incubated at room temperature for 10 minutes. Reconstituted peptide was then mixed with Imject™ Alum Adjuvant before injection.
as §4
EAE induction, scoring and statistical analysis were performed as described in example 2.
as §5

[4] = tested on: experimental auto-immune encephalomyelitis (EAE) development in mice; settings: Example 2, 16 mice per group
From the text: Example 2: Effect of the therapeutic administration of an immunogenic peptide comprising a MOG35-55 MHCII T cell epitope linked or not to an HCPYC oxidoreductase motif in combination with dimethyl fumarate (BG-12, […]™) on experimental auto-immune encephalomyelitis (EAE) development in mice.
The study used a total of 96 female C57BL/6 mice (Taconic Biosciences, 10 weeks old on Day 0). Mice were acclimated for 14 days prior to the first injection. Mice were assigned to groups in a balanced manner to achieve similar average weight across the groups at the start of the study.
Treatment 1 was administered once on each of the days indicated in Table 3, s.c., at a volume of 0.05 mL/site, each mouse receiving injection at two sites, for a total of 0.1 mL/mouse/dosing day. IMCY-0189 or MOG35-55 peptide total dose was 30 μg per administration.
as §1, §2
Lyophilized mouse MOG35-55 peptide with the sequence […] (SEQ ID NO:205), comprising the mouse Myelin Oligodendrocyte Glycoprotein (MOG35-55) MHCII T cell epitope […] (SEQ ID NO:169), was solubilized immediately before use. Lyophilized MOG35-55 peptide was thawed at room temperature for 10 minutes, resuspended in Na Acetate buffer 50 mM NaCl 0.9% pH 5.4 and incubated at room temperature for 10 minutes. Reconstituted MOG35-55 peptide was then mixed with Imject™ Alum Adjuvant before injection. Note that the positions 35 to 55 refer to the mature protein, i.e. after cleavage of the signal peptide (AA 1-29), defined by SEQ ID NO: 208. In the full-length amino acid sequence of MOG (SEQ ID NO: 184), said peptide would be at positions 64-84.
Lyophilized IMCY-0189 was thawed at room temperature for 10 minutes, resuspended in Na Acetate buffer 50 mM NaCl 0.9% pH 5.4 and incubated at room temperature for 10 minutes. Reconstituted peptide was then mixed with Imject™ Alum Adjuvant before injection.
For Treatment 2, vehicle was 0.5% HPMC, 0.2% Tween 20, and 50 mM citrate buffer at pH 4. BG-12 (Santa Cruz Biotechnology, sc-239774) and was prepared at least every 2 weeks. At each preparation the required amount of BG-12 was weighed out into a mortar and triturated with a pestle. Vehicle was then added in small increments and mixed until the final volume was reached. The material was then vortexed and sonicated in a water bath until a homogeneous suspension was obtained. Formulated BG-12 was stored at 4° C., stirring continuously.
EAE induction, scoring and statistical analysis were performed as described in example 1.
as §5

Compound | mice died in group [1] | disease onset [1] | AUC (area under the curve) of EAE scores [1] | MMS (mean maximal score) [1] | end score (clinical EAE score 0-5) [1] | serum NF-L levels [2] | mice died in group [3] | mice died in group [4] | mice died in group ([4]; listed as MOG35-55/Vehicle)
KCRCGWYRSPFSRVVHLYR [IMCY-0453] | 1 mice | statistically significantly improved | statistically significantly improved | statistically significantly improved | statistically significantly improved | statistically significant reduced NF-L levels |  |  | 
KCRPYCGWYRSPFSRVVHLYR [IMCY-0455] | 1 mice | statistically significantly improved | statistically significantly improved | statistically significantly improved | statistically significantly improved | statistically significant reduced NF-L levels |  |  | 
CC[C@H](C)[C@H](NC(=O)[C@H](CCCCN)NC(=O)[C@H](Cc1c[nH]c2ccccc12)NC(=O)[C@H](CO)NC(=O)[C@@H]1CCCN1C(=O)[C@@H](NC(=O)[C@H](CCCNC(=N)N)NC(=O)[C@H](CC(C)C)NC(=O)[C@H](Cc1ccccc1)NC(=O)[C@H](Cc1ccc(O)cc1)NC(=O)[C@H](CCCNC(=N)N)NC(=O)[C@@H](NC(=O)[C@H](CS)NC(=O)[C@H](Cc1ccc(O)cc1)NC(=O)[C@@H]1CCCN1C(=O)[C@H](CS)NC(=O)[C@H](Cc1c[nH]cn1)NC(=O)[C@@H](N)CCCCN)C(C)C)C(C)C)C(=O)N[C@H](C(=O)N[C@@H](CC(C)C)C(=O)N[C@@H](Cc1ccccc1)C(=O)N[C@@H](CCCCN)C(=O)N[C@@H](CCCCN)C(=O)O)[C@@H](C)O [P4] |  |  |  |  |  |  | No mice died |  | 
MEVGWYRSPFSRVVHLYRNGK [MOG35-55 peptide] |  |  |  |  |  |  |  | No mice died | 2 mice
